# Source: article PMC10127203, “Trapoxin A Analogue as a Selective Nanomolar Inhibitor of HDAC11” (ACS Chemical Biology, 2023)
# Experiments:
# [1] = molecular target: T1, HDAC11 (Homo sapiens, UniProt Q96DB2); test: HDAC11 enzyme activity assay (Myr-H3K9 peptide, HPLC); assay type: biochemical; parameters: made in house
# T1 sequence (Q96DB2 1-347): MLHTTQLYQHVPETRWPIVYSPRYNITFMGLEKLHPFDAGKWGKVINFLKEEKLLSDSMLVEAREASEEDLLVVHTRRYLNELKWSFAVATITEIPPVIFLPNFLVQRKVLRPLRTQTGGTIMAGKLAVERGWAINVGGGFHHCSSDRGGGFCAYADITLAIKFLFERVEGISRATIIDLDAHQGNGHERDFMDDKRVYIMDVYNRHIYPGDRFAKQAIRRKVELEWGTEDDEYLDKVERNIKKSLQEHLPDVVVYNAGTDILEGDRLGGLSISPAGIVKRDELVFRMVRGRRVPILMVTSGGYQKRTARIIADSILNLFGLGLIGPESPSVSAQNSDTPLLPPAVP
# Method: All quantified measurements were performed in triplicates. Data processing was performed using Graphpad Prism 9.5.0. Repeated measures of one-way ANOVA with Fisher’s LSD test were used to determine the P value. The dose–response data was fitted using a two-step nonlinear regression of the Morrison equation. […] HDACs and SIRTs were expressed and purified as previously described.[13] […] For HDAC1, 6, 8, and SIRT1-2, Ac-H3K9 was used as a substrate. […] The reaction was conducted for 15 min (HDAC11), 30 min (HDAC1, 4, 6, 8), and 5 min (SIRT1-2). Then, 20 μL of 0.2% TFA/acetonitrile was added to quench the reaction. The samples were analyzed by HPLC using a Chromolith HighResolution RP-18 end-capped 100 mm × 4.6 mm column (EMD Millipore). Mobile phase A was 0.1% TFA in water and mobile phase B was 0.1% TFA in acetonitrile. The total flow rate was 1 mL/min, and the gradient was 0% B (2 min), 0–60% B (7 min), 100% B (4 min), and 0% B (2 min). The relative ratio of product/substrate in each sample was compared to control sample (no inhibitor) to determine the inhibition level.
# [2] = tested on: α-tubulin, p53, and histone H3 acetylation levels; test: Acetylation levels of α-tubulin, p53 and histone H3 by Western blot in cells; assay type: cell-based; conditions: 3 h of treatment
# Excerpt: . As a positive control, we used trichostatin A (TSA), a nonselective HDAC inhibitor against both class I and class IIb HDACs.[25] […]
# [3] = molecular target: T1, HDAC11; parameters: method as in PMID 31264832; conditions: cited from earlier work
# [4] = tested on: YAP1 target genes CTGF and CYR61 in A549 cells; test: mRNA level of YAP1 and YAP1 target genes (CTGF, CYR61) by qRT-PCR in A549 cells; assay type: cell-based; conditions: for mRNA levels of YAP1 target genes CTGF and CYR61: 5 and 10 μM, 24 hr
# Method: (§1) A549 cells were treated with TD034 at 5 and 10 μM for 24 hr. Western blot was used to check for YAP1 protein level. qRT-PCR was used to check for YAP1 downstream genes transcription (CTGF and CYR61). Total RNA was extracted using IBI Isolate Total Extraction Reagent Kit (IB47602). […] of RNA was reverse transcribed using OneScript Plus cDNA Synthesis Kit (ABM G236) according to the manufacturer’s protocol. Real-time PCR was performed using BlasTaq 2X qPCR MasterMix (ABM G892) on a QuantStudio 3 Real-Time PCR System. All qPCR reactions were performed in triplicates. The list of primers is included in the Supporting Information.
# [5] = molecular target: T2, HDAC8 (Homo sapiens, UniProt Q9BY41); test: HDAC8 enzyme activity assay (Ac-H3K9, HPLC); conditions: read-out: HDAC8, % inhibition
# T2 sequence (Q9BY41 1-377): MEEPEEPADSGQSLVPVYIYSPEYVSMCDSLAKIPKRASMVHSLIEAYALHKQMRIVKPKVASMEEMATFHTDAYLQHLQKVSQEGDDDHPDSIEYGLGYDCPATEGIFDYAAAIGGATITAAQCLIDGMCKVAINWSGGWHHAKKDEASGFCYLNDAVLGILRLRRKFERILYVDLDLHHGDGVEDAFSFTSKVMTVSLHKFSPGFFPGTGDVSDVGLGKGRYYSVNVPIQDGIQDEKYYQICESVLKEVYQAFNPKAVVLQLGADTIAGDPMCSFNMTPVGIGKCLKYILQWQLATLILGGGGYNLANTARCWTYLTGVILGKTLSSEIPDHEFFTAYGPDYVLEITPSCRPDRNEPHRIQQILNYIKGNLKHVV
# [6] = pH 8
# [7] = molecular target: T3, HDAC6 (Homo sapiens, UniProt Q9UBN7); test: HDAC6 enzyme activity assay (Ac-H3K9, HPLC); conditions: read-out: HDAC6, % inhibition
# T3 sequence (Q9UBN7 1-1215): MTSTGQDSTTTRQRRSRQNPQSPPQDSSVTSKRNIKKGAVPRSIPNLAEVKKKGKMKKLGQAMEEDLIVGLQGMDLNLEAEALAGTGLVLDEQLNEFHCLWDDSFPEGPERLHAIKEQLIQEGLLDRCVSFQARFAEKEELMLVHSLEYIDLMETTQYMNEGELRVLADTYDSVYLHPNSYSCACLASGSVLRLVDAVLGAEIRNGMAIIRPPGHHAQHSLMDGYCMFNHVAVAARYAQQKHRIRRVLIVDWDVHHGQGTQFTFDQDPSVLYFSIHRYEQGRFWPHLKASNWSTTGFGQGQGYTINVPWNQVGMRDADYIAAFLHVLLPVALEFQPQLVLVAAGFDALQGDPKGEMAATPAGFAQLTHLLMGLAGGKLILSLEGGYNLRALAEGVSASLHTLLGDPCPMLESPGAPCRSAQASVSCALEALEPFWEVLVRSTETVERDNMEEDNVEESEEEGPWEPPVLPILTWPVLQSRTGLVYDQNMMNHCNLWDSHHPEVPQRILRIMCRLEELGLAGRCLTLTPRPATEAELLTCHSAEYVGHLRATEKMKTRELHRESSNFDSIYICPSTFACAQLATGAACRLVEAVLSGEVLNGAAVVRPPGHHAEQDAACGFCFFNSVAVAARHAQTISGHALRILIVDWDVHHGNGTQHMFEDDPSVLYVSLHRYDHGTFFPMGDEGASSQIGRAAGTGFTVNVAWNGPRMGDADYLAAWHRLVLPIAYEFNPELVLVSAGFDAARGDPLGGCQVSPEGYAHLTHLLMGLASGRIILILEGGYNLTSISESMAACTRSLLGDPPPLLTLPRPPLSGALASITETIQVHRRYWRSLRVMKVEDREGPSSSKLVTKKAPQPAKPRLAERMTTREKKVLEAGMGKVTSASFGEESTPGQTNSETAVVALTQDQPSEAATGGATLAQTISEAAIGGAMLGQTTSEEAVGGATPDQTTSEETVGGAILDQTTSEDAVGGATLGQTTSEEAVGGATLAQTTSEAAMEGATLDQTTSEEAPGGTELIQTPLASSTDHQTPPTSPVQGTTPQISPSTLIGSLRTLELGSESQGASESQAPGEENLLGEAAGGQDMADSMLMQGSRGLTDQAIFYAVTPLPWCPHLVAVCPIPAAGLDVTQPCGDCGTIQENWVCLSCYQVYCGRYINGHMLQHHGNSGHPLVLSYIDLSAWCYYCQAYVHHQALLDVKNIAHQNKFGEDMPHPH
# [8] = molecular target: T4, SIRT2 (Homo sapiens, UniProt Q8IXJ6); test: SIRT2 enzyme activity assay (Ac-H3K9, NAD+, HPLC)
# T4 sequence (Q8IXJ6 1-389): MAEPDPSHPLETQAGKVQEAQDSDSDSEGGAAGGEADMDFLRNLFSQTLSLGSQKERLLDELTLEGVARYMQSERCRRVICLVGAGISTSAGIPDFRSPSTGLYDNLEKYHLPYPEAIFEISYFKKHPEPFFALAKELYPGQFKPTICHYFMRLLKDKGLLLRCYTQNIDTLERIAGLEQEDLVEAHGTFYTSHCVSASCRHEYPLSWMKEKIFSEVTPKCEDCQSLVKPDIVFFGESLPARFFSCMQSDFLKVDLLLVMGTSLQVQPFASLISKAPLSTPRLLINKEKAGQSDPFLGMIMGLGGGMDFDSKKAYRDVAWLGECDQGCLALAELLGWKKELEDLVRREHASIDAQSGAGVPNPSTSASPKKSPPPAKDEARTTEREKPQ
# [9] = molecular target: T5, SIRT1 (Homo sapiens, UniProt Q96EB6); test: SIRT1 enzyme activity assay (Ac-H3K9, NAD+, HPLC); conditions: read-out: SIRT1, % inhibition
# T5 sequence (Q96EB6 1-747): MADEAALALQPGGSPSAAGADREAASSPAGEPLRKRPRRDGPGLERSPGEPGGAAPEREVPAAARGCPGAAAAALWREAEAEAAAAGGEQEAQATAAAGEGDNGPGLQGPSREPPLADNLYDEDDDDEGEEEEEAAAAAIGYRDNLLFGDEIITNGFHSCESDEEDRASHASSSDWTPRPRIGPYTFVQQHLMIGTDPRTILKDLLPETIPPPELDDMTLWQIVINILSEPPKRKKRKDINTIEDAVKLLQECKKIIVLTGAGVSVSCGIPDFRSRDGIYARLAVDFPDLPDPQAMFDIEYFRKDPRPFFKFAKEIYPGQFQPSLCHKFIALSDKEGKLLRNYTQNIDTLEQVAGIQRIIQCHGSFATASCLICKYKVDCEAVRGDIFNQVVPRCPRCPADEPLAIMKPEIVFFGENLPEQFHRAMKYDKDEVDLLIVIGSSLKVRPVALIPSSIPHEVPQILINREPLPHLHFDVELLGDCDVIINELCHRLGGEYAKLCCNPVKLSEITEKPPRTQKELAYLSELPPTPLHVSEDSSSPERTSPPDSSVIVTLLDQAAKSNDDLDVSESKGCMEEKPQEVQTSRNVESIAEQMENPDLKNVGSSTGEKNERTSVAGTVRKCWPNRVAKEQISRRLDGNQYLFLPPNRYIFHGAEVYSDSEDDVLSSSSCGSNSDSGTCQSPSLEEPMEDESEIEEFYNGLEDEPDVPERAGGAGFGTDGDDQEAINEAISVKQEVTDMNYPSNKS
# [10] = molecular target: HDAC1 (Homo sapiens, UniProt Q13547); test: HDAC1 enzyme activity assay (Ac-H3K9, HPLC); conditions: read-out: HDAC1, % inhibition
# Sequence of HDAC1 (Q13547 whole entry): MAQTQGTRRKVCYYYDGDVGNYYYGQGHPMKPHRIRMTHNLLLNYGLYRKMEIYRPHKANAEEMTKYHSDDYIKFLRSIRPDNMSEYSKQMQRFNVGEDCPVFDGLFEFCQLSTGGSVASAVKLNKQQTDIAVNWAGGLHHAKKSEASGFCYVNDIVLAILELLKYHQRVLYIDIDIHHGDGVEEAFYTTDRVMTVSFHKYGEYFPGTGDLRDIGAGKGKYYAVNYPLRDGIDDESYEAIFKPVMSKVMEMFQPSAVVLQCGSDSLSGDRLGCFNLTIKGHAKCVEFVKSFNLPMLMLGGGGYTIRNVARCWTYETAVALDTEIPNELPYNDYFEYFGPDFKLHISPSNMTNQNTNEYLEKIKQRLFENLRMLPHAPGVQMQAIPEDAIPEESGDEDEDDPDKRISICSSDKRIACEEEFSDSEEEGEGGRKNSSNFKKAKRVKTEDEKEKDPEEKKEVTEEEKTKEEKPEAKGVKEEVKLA
# [11] = tested on: YAP1 protein level in A549 cells; test: YAP1 protein level by Western blot in A549 cells; assay type: cell-based; conditions: for YAP1 protein levels: A549 cells, 5 and 10 μM, 24 hr
# Method: as §1
# [12] = molecular target: HDAC4 (Homo sapiens, UniProt P56524); test: HDAC4 enzyme activity assay (trifluoroacetyl-H3K9, HPLC); conditions: read-out: HDAC4, % inhibition
# Sequence of HDAC4 (P56524 whole entry): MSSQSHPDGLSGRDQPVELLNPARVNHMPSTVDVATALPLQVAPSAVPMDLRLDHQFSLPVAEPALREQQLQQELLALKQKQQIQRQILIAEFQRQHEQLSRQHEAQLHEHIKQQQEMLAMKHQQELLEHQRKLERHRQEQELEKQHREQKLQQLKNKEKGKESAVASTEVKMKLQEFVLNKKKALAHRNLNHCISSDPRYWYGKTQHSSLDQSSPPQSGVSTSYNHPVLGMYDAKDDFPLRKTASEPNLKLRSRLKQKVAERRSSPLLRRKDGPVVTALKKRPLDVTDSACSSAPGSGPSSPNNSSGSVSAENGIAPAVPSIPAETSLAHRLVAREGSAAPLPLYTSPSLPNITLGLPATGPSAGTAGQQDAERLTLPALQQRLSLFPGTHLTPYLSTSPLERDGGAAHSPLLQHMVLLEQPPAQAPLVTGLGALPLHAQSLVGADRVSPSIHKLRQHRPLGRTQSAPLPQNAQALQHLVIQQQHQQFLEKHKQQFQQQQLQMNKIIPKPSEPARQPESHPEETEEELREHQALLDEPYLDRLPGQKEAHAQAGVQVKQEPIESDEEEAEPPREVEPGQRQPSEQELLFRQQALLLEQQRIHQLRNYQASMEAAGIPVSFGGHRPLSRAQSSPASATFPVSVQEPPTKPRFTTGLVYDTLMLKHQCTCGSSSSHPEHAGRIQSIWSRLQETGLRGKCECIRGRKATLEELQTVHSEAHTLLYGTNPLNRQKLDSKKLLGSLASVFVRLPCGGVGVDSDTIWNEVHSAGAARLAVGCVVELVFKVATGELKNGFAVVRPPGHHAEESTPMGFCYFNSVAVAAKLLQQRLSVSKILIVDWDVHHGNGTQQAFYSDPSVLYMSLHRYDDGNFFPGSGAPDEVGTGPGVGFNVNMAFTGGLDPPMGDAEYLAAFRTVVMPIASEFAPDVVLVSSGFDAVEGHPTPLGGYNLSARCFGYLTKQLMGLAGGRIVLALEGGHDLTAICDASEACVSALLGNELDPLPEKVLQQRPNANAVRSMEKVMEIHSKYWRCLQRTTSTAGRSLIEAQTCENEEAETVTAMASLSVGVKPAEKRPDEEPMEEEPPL
# [13] = molecular target: T1, HDAC11; test: HDAC11 in cell assay: defatty acylation of SHMT2 (Alk14 labeling, Western blot); assay type: cell-based; parameters: endogenous in cells; host or cells: HEK293T; conditions: HEK293T cells, 20 μM, 3 h, 50 μM Alk14
# Method: We treated HEK293T cells with an alkyne-tagged myristic acid analog, Alk14, along with the inhibitors (TD034, SIS17, or FT895) for 3 h. Click chemistry was performed on cell lysate with Biotin-azide, followed by Streptavidin pulldown. […] HEK293T in a six-well plate at 80% confluency was treated with 50 μM Alk14 and inhibitors at various concentrations. The cells were incubated for 3 h. The cells were harvested and lysed in 200 μL of 4% SDS lysis buffer (50 mM triethanolamine, 150 mM NaCl, 4% SDS, pH 7.4) with a 1:100 protease inhibitor cocktail and 1:1000 nuclease for 15 min. The cell lysates were then diluted with 3.8 mL of HEPES buffer (50 mM HEPES, 150 mM NaCl, 1% NP-40, pH 7.4), and then concentrated using Amicon Ultra-4 (30 kDa cutoff) for 45 min at 4000g. The retained samples were then diluted to 0.5 mL with HEPES buffer, followed by the addition of Biotin-N3 (5 μL, 5 mM in DMF), TBTA (5 μL, 2 mM in DMF), CuSO4 (5 μL, 50 mM in water), and TCEP (5 μL, 50 mM in water). The samples were shaken at 37 °C for 1 h, then diluted with 3 mL of HEPES buffer, and concentrated again using Amicon Ultra-4 (30 kDa cutoff) for 45 min at 4000g. The retained samples were then diluted to 0.5 mL with HEPES buffer, followed by the addition of 20 μg of magnetic streptavidin beads (prewashed with the HEPES buffer). […] The eluants were further analyzed by SDS-PAGE and Western blot for SHMT2.
smiles,measurement,setting,value
CCCCCCCCCCC1(C(=O)CCCCC[C@@H]2NC(=O)[C@H]3CCCCN3C(=O)[C@H](Cc3ccccc3)NC(=O)[C@H](Cc3ccccc3)NC2=O)CO1 (stereo partly shown) [TD036],HDAC11 inhibition (in words),[1],abolished HDAC11 inhibition
"CC(/C=C/C(=O)NO)=C\[C@@H](C)C(=O)c1ccc(N(C)C)cc1 [TSA, trichostatin A, reference compound]",level of acetylated α-tubulin (HDAC6 and SIRT2 target),[2],elevated level
same,levels of acetylated histone H3 and acetylated p53 (class I HDACs and SIRT1 target),[2],increased levels
O=C(CCCCCCC(=O)Nc1ccccc1)NO [SAHA],inhibition of HDAC11 demyristoylation activity in vitro,[3],cannot efficiently inhibit
CCCCCCCCCCC[C@H]1O[C@@H]1C(=O)CCCCC[C@@H]1NC(=O)[C@H]2CCCCN2C(=O)[C@H](Cc2ccccc2)NC(=O)[C@H](Cc2ccccc2)NC1=O [TD034],level of acetylated α-tubulin (HDAC6 and SIRT2 target),[2],did not have such an effect
same,levels of acetylated histone H3 and acetylated p53 (class I HDACs and SIRT1 target),[2],did not have such an effect
same,YAP1 mRNA level,[4],not affected
same,mRNA levels of YAP1 target genes CTGF and CYR61,[4],decrease
same,inhibition at 1 µM,[5],0%
same,inhibition at 10 µM,[5],0%
same,inhibition at 25 µM,[5],0%
same,stability in Tris buffer and DTT,[6],relatively stable
same,inhibition at 1 µM,[7],0%
same,inhibition at 10 µM,[7],0%
same,inhibition at 25 µM,[7],0%
same,IC50,[8],~25 µM
same,inhibition at 1 µM,"[8]; read-out: SIRT2, % inhibition",9%
same,inhibition at 10 µM,"[8]; read-out: SIRT2, % inhibition",29%
same,inhibition at 25 µM,"[8]; read-out: SIRT2, % inhibition",54%
same,inhibition at 1 µM,[9],0%
same,inhibition at 10 µM,[9],0%
same,inhibition at 25 µM,[9],0%
same,inhibition at 1 µM,[10],0%
same,inhibition at 10 µM,[10],0%
same,inhibition at 25 µM,[10],0%
same,YAP1 protein levels,[11],significant reduction
same,YAP1 protein level,[11]; wild-type (WT) A549 cells,reduced
same,inhibition at 1 µM,[12],0%
same,inhibition at 10 µM,[12],0%
same,inhibition at 25 µM,[12],0%
CCCCCCCCCCC[C@@H]1O[C@H]1C(=O)CCCCC[C@@H]1NC(=O)[C@H]2CCCCN2C(=O)[C@H](Cc2ccccc2)NC(=O)[C@H](Cc2ccccc2)NC1=O [TD034-(R)],mRNA levels of YAP1 target genes CTGF and CYR61,[4],did not observe such an effect
same,YAP1 protein levels,[11],did not observe such an effect
CCCCCCCCCCCCCCCCNNC(=O)c1cccs1 [SIS17],inhibition of HDAC11 demyristoylation activity in vitro,[3],low micromolar inhibition
same,fatty acylation level of SHMT2,[13],same effect
